Measured values as given in patent US4022842A, “Bibenzyl compounds” (Rikagaku Kenkyusho, priority 1972, dated 1977).
≈ marks a conversion by molar mass, not a printed value. Where two headings read alike, the source gives them in different places. Each block holds one compound with its values, some of them ahead of it.

How the values were obtained:
oats coleoptile = test: Growth inhibition in oats coleoptile sections (Example 4, Table 1); design: species or system Avena sativa L.; details: Avena sativa
Procedure: A compound illustrated in Table 1 was dissolved in dimethylformamide and the solution was diluted to desired concentrations with water containing 2% of sucrose. In control test dimethylformamide was applied in the same amount as that of treated groups. This solvent gives no phytotoxicity to plants to be tested if the content in water is 1% or less. The prepared liquors were poured into culture dishes of 3 cm diameter, the amount of the medium poured into one dish being 2 ml. Sections of 5 mm in length cut from a coleoptiles of oats (Avena sativa L.) which have been grown in the dark were floated on the test media in the culture dishes and cultured at 25° C. for 20 hours in the dark to determine the growth-inhibition degrees.
In the control group, the coleoptile elongated by about 5 mm during the experiment.

lettuce seeds = test: Inhibition of germination of lettuce seeds, 50% inhibition (Example 5, Table 2); type: in vivo, Lactuca sativa L.; details: Lactuca sativa, 48 h, 1% dimethylformamide
Procedure: Every compound shown in Table 1 was respectively dissolved at various concentrations in distilled water containing 1% of dimethylformamide, and 3 ml each of the resulting solutions was poured into a culture dish of 6 cm diameter in which 2 filter papers were spread. About 100 seeds (non-dormant ware head seeds) of lettuce (Lactuca sativa L.) were shown in each dish, and they were allowed to stand at 23° C. in the dark for 2 days. Germination percentages were determined and plotted against the concentrations of the compound tested. From the graphs obtained the concentration to give 50% inhibition was determined. The definition of inhibition rate is given in the following formula: [formula] Usually the germination percentage of the untreated control lot was about 95%.

Solubility = type: physicochemical; details: for Solubility in ordinary solvents: ethanol, acetone, ethyl acetate and ether
Bulbils of yam [1] = test: Germination (sprouting) of yam bulbils awakened from dormancy (Example 6, Table 3); type: in vivo, Dioscorea batatas Decne.; details: 300 μg/ml; 23° C., light of 1800 luxes, 2 weeks; untreated control 80
Procedure: Bulbils (fleshy buds for breeding formed on stems) of yam (Dioscorea batatas Decne.) were stored at a low temperature of 5° C. for 3 months and awakened from hibernation. These fleshy buds were treated with the agricultural chemical of this invention in the following manner to lead them to hibernation again.
Every active ingredient compound of this invention shown in the following Table 3 was dissolved emulsified in distilled water containing 1% of dimethylformamide and 0.05% of Tween 20. 25 ml of the resulting liquor was poured into a culture dish of 9 cm diameter in which absorbent cotton was spread, and 30 of bulbis which had been subjected to the above low temperature treatment and awakened from dormancy were sown on the dish and they were allowed to sprout at 23° C. under light of 1800 luxes for 2 weeks.

bulbils of yam [2] = test: Sprouting of yam bulbils in dark or light (Example 7, Table 4); type: in vivo, Discorea batatas Decne.; details: 23° C., 20 days
Procedure: 4-Hydroxy-2,6,7-trimethoxyphenanthrene and 3,3'-dihydroxy-5-methoxybibenzylwere respectively dissolved at various concentrations in water containing 0.05% of Tween 20, and 30 ml each of the resulting solutions were poured into culture dishes of 9 cm in diameter containing 1 g of absorbent cotton.
Thirty bulbils of yam (Discorea batatas Decne.) which had been awakened from dormancy were planted in each of the so arranged culture dishes, and the germination test was carried out at 23° C. either in the dark or in the light. […]

seeds of a lettuce = test: Germination ratio of lettuce seeds (Example 8, Table 5); type: in vivo, Lactuca sativa L.; details: for Germination Ratio: 23° C., 2 days, untreated control 90
Procedure: 4-Hydroxy-2,6,7-trimethoxyphenanthrene and 3,3'-dihydroxy-5-methoxybibenzylwere respectively dissolved in water containing 0.05% of Tween 20 and 1% of dimethylformamide, and each of the resulting solution was poured into a culture dish, 6 cm in diameter, in which 2 layers of filter paper were spread to form a germination bed. 100 seeds of a lettuce (Lactuca sativa L.) were sown on the germination bed and cultivation was conducted for 2 days at 23° C. […] [formula]

oats coleoptiles = test: Growth inhibition of oats coleoptile pieces with indoleacetic acid (Example 9, Table 6); design: species or system Avena sativa L.; details: Avena sativa, 0.1 mg/l indoleacetic acid, 25° C., 18 hours, read-out: Growth Inhibition ratio
Procedure: Oats (Avena sativa L.) were allowed to germinate under a weak red light at 25° C. and 3 days after germination sections of […] in length were cut from coleoptiles about 25 mm in length. 4-Hydroxy-2,6,7-trimethoxyphenanthrene or 3,3-dihydroxy-5-methoxybibenzyl was dissolved in a culture medium comprising 0.1 mg/l of indoleacetic acid, 0.05% of Tween 20 and 2% of sucrose, the balance being water. Ten of the above cut-out coleoptile pieces were flated on the resulting culture medium and cultivation was conducted at 25° C. for 18 hours to examine the growth state and the results shown in Table 6 were obtained.

Seedings of lettuce = test: Growth inhibition of lettuce seedling stems (hypocotyls) (Example 10, Table 7); type: in vivo, Lactuca sativa L.; details: Lactuca sativa, 72 h, stem (hypocotyl) length, light place, 23° C., 3 days, read-out: Growth Inhibition Ratio
Procedure: 4-Hydroxy-2,6,7-trimethoxyphenanthrene or 3,3'-dihydroxy-5-methoxybibenzyl was dissolved in acetone, and the resulting solution was placed in culture dishes in which 2 layers of filter paper were spread so as to give required amounts of the test compound. After the acetone was removed by evaporation, Hoagland's nutrient solution containing 0.05% of Tween 20 was poured into the culture dishes. Seedings of lettuce (Lactuca sativa L.), which had been germinated in a different place, were transplanted to the culture dishes and cultivation was carried out in a light place at 23° C. for 3 days. Then, the lengths of the stems (hypocotyls) were measured to determined the growth inhibition ratio.

[3] = 5 mm sections, 25° C., 20 hours, dark, read-out: Growth Inhibition in oats coleoptile (concentration giving 50% inhibition)
[4] = 23° C., dark, 2 days, read-out: Inhibition of Germination of Lettuce Seeds, Concentration Giving 50% Inhibition

Structure (SMILES): COc1cc(O)cc(CCc2ccccc2)c1 [Compound 1, 3-hydroxy-5-methoxybibenzyl]
- IC50 (oats coleoptile; [3]): 80 µg/mL (≈ 350 µM)
- IC50 (lettuce seeds; [4]): 60 µg/mL (≈ 263 µM)

- Solubility in ordinary solvents (Solubility): Soluble
- Solubility in hexane (Solubility): insoluble
- Solubility in water (Solubility): insoluble
Structure (SMILES): COc1cc(CCc2ccccc2O)c(O)c(OC)c1 [Compound 2, 2,2'-dihydroxy-3,5-dimethoxybibenzyl]
- IC50 (oats coleoptile; [3]): 100 µg/mL (≈ 365 µM)
- IC50 (lettuce seeds; [4]): 100 µg/mL (≈ 365 µM)

Structure (SMILES): COc1cc(CCc2ccc(O)cc2)cc(O)c1OC [Compound 3, 3,4'-dihydroxy-4,5-dimethoxybibenzyl]
- IC50 (oats coleoptile; [3]): 150 µg/mL (≈ 547 µM)
- IC50 (lettuce seeds; [4]): 120 µg/mL (≈ 437 µM)
- Germination Ratio (Bulbils of yam [1]): 42%

Structure (SMILES): CC(=O)c1cc(CCc2ccccc2)c(O)cc1O [Compound 4, 4,6-dihydroxy-3-acetyldibenzyl]
- IC50 (oats coleoptile; [3]): 90 µg/mL (≈ 351 µM)
- IC50 (lettuce seeds; [4]): 90 µg/mL (≈ 351 µM)
- Germination Ratio (Bulbils of yam [1]): 63%

Structure (SMILES): Oc1ccc(CCc2ccccc2)c(O)c1 [Compound 5, 2,4-dihydroxybibenzyl]
- IC50 (oats coleoptile; [3]): 110 µg/mL (≈ 513 µM)
- IC50 (lettuce seeds; [4]): 90 µg/mL (≈ 420 µM)

Structure (SMILES): Oc1c(Cl)cc(Cl)cc1CCc1cc(Cl)cc(Cl)c1O [Compound 6, 3,5,3',5'-tetrachloro-2,2'-dihydroxybibenzyl]
- IC50 (oats coleoptile; [3]): 30 µg/mL (≈ 85.2 µM)
- IC50 (lettuce seeds; [4]): 10 µg/mL (≈ 28.4 µM)
- Germination Ratio (Bulbils of yam [1]): 15%

Structure (SMILES): COc1ccc(CCc2cc(O)cc(O)c2)cc1O [Compound 7, 3,3',5'-trihydroxy-4-methoxybibenzyl]
- IC50 (oats coleoptile; [3]): 75 µg/mL (≈ 288 µM)
- IC50 (lettuce seeds; [4]): 75 µg/mL (≈ 288 µM)

- Blight of germination-inhibited seeds (seeds of a lettuce; in vivo): not blighted
- Solubility in ordinary solvents (Solubility): Soluble
- Solubility in hexane (Solubility): insoluble
- Solubility in water (Solubility): difficultly soluble
Structure (SMILES): COc1cc(O)cc(CCc2cccc(O)c2)c1 [Compound 8, 3,3'-dihydroxy-5-methoxybibenzyl]
- IC50 (oats coleoptile; [3]): 100 µg/mL (≈ 409 µM)
- IC50 (lettuce seeds; [4]): 80 µg/mL (≈ 327 µM)
- Germination Ratio (Bulbils of yam [1]): 50%
- Sprouting Ratio (bulbils of yam [2]; 100 mg/l, dark place, untreated control 56): 56%
- Sprouting Ratio (bulbils of yam [2]; 100 mg/l, light place, untreated control 44): 23%
- Sprouting Ratio (bulbils of yam [2]; 300 mg/l, dark place, untreated control 56): 22%
- Sprouting Ratio (bulbils of yam [2]; 300 mg/l, light place, untreated control 44): 18%
- Sprouting Ratio (bulbils of yam [2]; 1000 mg/l, dark place, untreated control 56): 14%
- Germination Ratio (seeds of a lettuce; 30 mg/l): 52%
- Germination Ratio (seeds of a lettuce; 100 mg/l): 26%
- Germination Ratio (seeds of a lettuce; 300 mg/l): 0%
- Germination after washing and transplanting (seeds of a lettuce; washed with water, transplanted on culture dish free of compound): complete germination
- inhibition at 30 µg/mL (oats coleoptiles; 30 mg/l): 39%
- inhibition at 100 µg/mL (oats coleoptiles; 100 mg/l): 76%
- inhibition at 300 µg/mL (oats coleoptiles; 300 mg/l): 84%
- inhibition at 30 µg/mL (Seedings of lettuce; 30 mg/l): 21%
- inhibition at 100 µg/mL (Seedings of lettuce; 100 mg/l): 48%
- inhibition at 300 µg/mL (Seedings of lettuce; 300 mg/l): 86%

Structure (SMILES): COc1cc(OC)c2c(ccc3ccc(O)cc32)c1 [Compound 9, 2,4-dimethoxy-6-hydroxyphenanthrene]
- IC50 (oats coleoptile; 20 h, read-out: Growth Inhibition in oats coleoptile (concentration giving 50% inhibition), 5 mm sections, 25° C., 20 hours, dark): 130 µg/mL (≈ 511 µM)
- IC50 (lettuce seeds; read-out: Inhibition of Germination of Lettuce Seeds, Concentration Giving 50% Inhibition, 23° C., dark, 2 days): 100 µg/mL (≈ 393 µM)
